Test results from patent publication US20170050957A1, “4-AMINO-6-(HETEROCYCLIC)PICOLINATES AND 6-AMINO-2-(HETEROCYCLIC)PYRIMIDINE-4-CARBOXYLATES AND THEIR USE AS HERBICIDES” (Dow AgroSciences LLC, priority 2013, published 2017).
Where two headings read alike, the source gives them in different places.

Key:
[1] = test system: Key Broadleaf Weed and Crop Species; assay: Post-emergent Test II herbicidal activity (Table 15); type: in vivo; conditions: post-emergence, 336 h, 14 d; for pest or weed control at 35 g/ha: 35 g ai/ha; for pest or weed control at 70 g/ha: 70 g ai/ha; for pest or weed control at 140 g/ha: 140 g ai/ha
Procedure, shortened: (§1)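 Greenhouse-grown seedlings at first/second true leaf receive a track spray at 187 L/ha, using a highest rate plus two-fold serial dilutions down to 1/16×. Watering is by subirrigation to avoid wash-off. Percent injury (0-100) is judged by eye at 14 d against untreated plants.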

[2] = test system: Key Grass and Sedge Weeds as well as Grass Crops; assay: Post-emergent Test II herbicidal activity (Table 16); type: in vivo; conditions: post-emergence, 336 h, 14 d; for pest or weed control at 35 g/ha: 35 g ai/ha; for pest or weed control at 70 g/ha: 70 g ai/ha; for pest or weed control at 140 g/ha: 140 g ai/ha
Procedure, shortened: as §1

[3] = Abutilon theophrasti, velvetleaf (Abutilon theophrasti), read-out: Visual Growth Reduction (%) 14 Days After Application, ABUTH
[4] = Amaranthus retroflexus, redroot pigweed (Amaranthus retroflexus), read-out: Visual Growth Reduction (%) 14 Days After Application, AMARE
[5] = Brassica napus, oilseed rape, canola (Brassica napus), read-out: Visual Growth Reduction (%) 14 Days After Application, BRSNN
[6] = Chenopodium album, lambsquarters (Chenopodium album), read-out: Visual Growth Reduction (%) 14 Days After Application, CHEAL
[7] = Euphorbia heterophylla, wild poinsettia (Euphorbia heterophylla), read-out: Visual Growth Reduction (%) 14 Days After Application, EPHHL
[8] = Helianthus annuus, sunflower (Helianthus annuus), read-out: Visual Growth Reduction (%) 14 Days After Application, HELAN
[9] = Cyperus esculentus, yellow nutsedge (Cyperus esculentus), read-out: Visual Growth Reduction (%) 14 Days After Application, CYPES
[10] = Echinochloa crus-galli, barnyardgrass (Echinochloa crus-galli), read-out: Visual Growth Reduction (%) 14 Days After Application, ECHCG
[11] = Oryza sativa, rice (Oryza sativa), read-out: Visual Growth Reduction (%) 14 Days After Application, ORYSA
[12] = Setaria faberi, giant foxtail (Setaria faberi), read-out: Visual Growth Reduction (%) 14 Days After Application, SETFA
[13] = Triticum aestivum, wheat, spring (Triticum aestivum), read-out: Visual Growth Reduction (%) 14 Days After Application, TRZAS
[14] = Zea mays, maize, corn (Zea mays), read-out: Visual Growth Reduction (%) 14 Days After Application, ZEAMX

`COC(=O)c1nc(-c2cccc3cc[nH]c23)c(F)c(N)c1Cl` [Compound 1.47] showed a pest or weed control at 35 g/ha [1, 3] of 0 to 29%, a pest or weed control at 70 g/ha [1, 3] of 0 to 29% and a pest or weed control at 140 g/ha [1, 3] of 0 to 29%. It also gave a pest or weed control at 35 g/ha [1, 4] of 0 to 29%, a pest or weed control at 70 g/ha [1, 4] of 0 to 29% and a pest or weed control at 140 g/ha [1, 4] of 30 to 44%. It also gave a pest or weed control at 35 g/ha [1, 5] of 0 to 29%, a pest or weed control at 70 g/ha [1, 5] of 0 to 29% and a pest or weed control at 140 g/ha [1, 5] of 0 to 29%. It also gave a pest or weed control at 35 g/ha [1, 6] of 75 to 84%, a pest or weed control at 70 g/ha [1, 6] of 75 to 84% and a pest or weed control at 140 g/ha [1, 6] of 85 to 94%. It also gave a pest or weed control at 35 g/ha [1, 7] of 0 to 29%, a pest or weed control at 70 g/ha [1, 7] of 0 to 29% and a pest or weed control at 140 g/ha [1, 7] of 0 to 29%. The pest or weed control at 35 g/ha [1, 8] was 0 to 29%, the pest or weed control at 70 g/ha [1, 8] was 0 to 29% and the pest or weed control at 140 g/ha [1, 8] was 45 to 59%. For the same molecule, the melting point was 96 to 100 °C, the pest or weed control at 35 g/ha [2, 9] was 0 to 29% and the pest or weed control at 70 g/ha [2, 9] was 0 to 29%. It also gave a pest or weed control at 140 g/ha [2, 9] of 0 to 29%, a pest or weed control at 35 g/ha [2, 10] of 0 to 29% and a pest or weed control at 70 g/ha [2, 10] of 0 to 29%. The pest or weed control at 140 g/ha [2, 10] was 0 to 29%, the pest or weed control at 35 g/ha [2, 11] was 0 to 29% and the pest or weed control at 70 g/ha [2, 11] was 0 to 29%. It also gave a pest or weed control at 140 g/ha [2, 11] of 0 to 29%, a pest or weed control at 35 g/ha [2, 12] of 0 to 29% and a pest or weed control at 70 g/ha [2, 12] of 0 to 29%. The pest or weed control at 140 g/ha [2, 12] was 0 to 29%, the pest or weed control at 35 g/ha [2, 13] was 0 to 29% and the pest or weed control at 70 g/ha [2, 13] was 0 to 29%. It also gave a pest or weed control at 140 g/ha [2, 13] of 0 to 29%, a pest or weed control at 35 g/ha [2, 14] of 0 to 29% and a pest or weed control at 70 g/ha [2, 14] of 0 to 29%. It also gave a pest or weed control at 140 g/ha [2, 14] of 0 to 29%.
